Laboratory results taken from PubChem BioAssay (NCI).
Where “and” joins values, the source holds several entries; their conditions need not be identical. Equal values may be shown once.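 Briefly, cells in 96-well plates were exposed to five compound concentrations for 48 h, and endpoints were estimated by linear interpolation. At the GI50, growth is halved. TGI denotes the concentration required for complete inhibition of growth.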

Experiments:
Test in all cases: growth of human tumour cells (NCI), 48 h
[1] = test system: KM12 colon
[2] = test system: MALME-3M melanoma
[3] = test system: MCF7 breast
[4] = test system: OVCAR-3 ovarian
[5] = test system: OVCAR-4 ovarian
[6] = test system: RPMI-8226 leukemia
[7] = test system: SF-268 CNS
[8] = test system: SK-MEL-28 melanoma
[9] = test system: SK-OV-3 ovarian
[10] = test system: TK-10 renal

| Structure (SMILES) | GI50 [1] | TGI [1] | GI50 [2] | TGI [2] | GI50 [3] | TGI [3] | GI50 [4] | TGI [4] | GI50 [5] | TGI [5] | GI50 [6] | TGI [6] | GI50 [7] | TGI [7] | GI50 [8] | TGI [8] | GI50 [9] | TGI [9] | GI50 [10] | TGI [10] |
| --- | --- | --- | --- | --- | --- | --- | --- | --- | --- | --- | --- | --- | --- | --- | --- | --- | --- | --- | --- | --- |
| COc1ccc(/C=C2/CN(CCC#N)C/C(=C\c3ccc(OC)cc3)C2=O)cc1 | 1720 nM | 3.83 µM | 2.95 µM | 8.58 µM | 1720 nM | > 100 µM | 2.79 µM | 7.46 µM | 4.42 µM | > 100 µM | 401 nM | 9.02 µM | 3.27 µM | 36.7 µM | 1.99 µM | 4.3 µM | 5.24 µM | 51.8 µM | 3.21 µM | 7.91 µM |
| O=C(Nc1ccccc1)Nc1ccc(Cl)c(Cl)c1 | 2640 nM | 20.5 µM | 2.86 µM | 21.4 µM | 3140 nM | 73.3 µM | 2.44 µM | 8.76 µM | 3.34 µM | 71.5 µM | 2830 nM | 9.83 µM | 4.76 µM | > 100 µM | 4.55 µM | > 100 µM | 5.52 µM | > 100 µM | 3.83 µM | 36.2 µM |
| CC(C)COC(c1ccc2c(c1)OCO2)C(C)Br (centres undefined) | – | 55 µM | – | 36.1 µM | – | 86.9 µM | – | 34.8 µM | – | > 100 µM | – | 43 µM | – | 59.7 µM | – | > 100 µM | – | 80 µM | – | > 100 µM |
| O=C1NC(=N[C@H](CO)c2ccccc2)S/C1=C\c1ccc2ncccc2c1 | 5770 nM | > 21.4 µM | 6.21 µM | 22.4 µM | 4570 nM | > 25 µM | 4.13 µM | 13.7 µM | 2.67 µM | > 25 µM | 3730 nM | 10.9 µM | 3.82 µM | > 25 µM | 7.96 µM | > 25 µM | 5.11 µM | 17.6 µM | 1.95 µM | 20 µM |
| COc1cc(-c2nn(-c3cccc(NC(=O)CCN4CCN(C)CC4)c3)cc2-c2ccncc2)ccc1Cl | 1360 nM | 4.59 µM | 0.847 µM | 2.36 µM | 350 nM | 1.92 µM | 0.363 µM | 1.75 µM | 1.73 µM | 11.4 µM | 1770 nM | 4.56 µM | 1.43 µM | 3.53 µM | 1.48 µM | 2.99 µM | 1.81 µM | 7.34 µM | 3.8 µM | 14.6 µM |
| CCN1C(=O)N(CC)C2C1NN=c1s/c(=C\c3ccc(OC)cc3)c(=O)n12 (centres undefined) | 71.6 nM | > 100 µM | 0.304 µM | > 100 µM | 46.5 nM | > 100 µM | 0.114 µM | 0.526 µM | 0.614 µM | > 100 µM | 353 nM | > 100 µM | 0.577 µM | > 80.1 µM | 0.953 µM | > 100 µM | 0.267 µM | 17.1 µM | > 33.5 µM | > 100 µM |
| COc1ccc2c(c1)C(=O)c1c-2c(N2CCN(C(=O)CCNCCNCCO)CC2)nc2ccccc12 | 16300 nM | 53.1 µM | 26.6 µM | 58 µM | 7270 nM | 25.9 µM | 20.6 µM | 43.2 µM | 21.2 µM | 42.2 µM | 11300 nM | 33.2 µM | 14.3 µM | 36.9 µM | 9.22 µM | 23.4 µM | 15.9 µM | 30.9 µM | 22.5 µM | 43.1 µM |
| Cc1cc2c(cc1Cl)SC(C(=O)c1ccc(Cl)c(Cl)c1)NS2(=O)=O (centres undefined) | 30900 nM | 80.9 µM | 45.3 µM | > 100 µM | 21200 nM | 47.3 µM | 40.7 µM | > 100 µM | 27.1 µM | 71.5 µM | 24600 nM | 56 µM | 33.6 µM | 88.6 µM | 30.4 µM | 88.9 µM | 33.7 µM | 91.4 µM | 84.7 µM | > 100 µM |
| N#Cc1ccc(/C=C/C(=O)c2ccccc2)cc1 | 1790 nM and 1830 nM | 3.46 µM and 3.54 µM | 18.2 µM and 14.9 µM | 33.6 µM and 31 µM | 2440 nM and 1710 nM | 9.25 µM and 5.38 µM | 13.8 µM and 5.71 µM | 26.6 µM and 13 µM | 16.5 µM and 13.2 µM | 36.5 µM and 27 µM | 2320 nM and 1930 nM | 6.4 µM and 4.83 µM | 13.3 µM and 9.61 µM | 26.7 µM and 25.4 µM | 15.5 µM and 5.18 µM | 28.8 µM and 14.9 µM | 17.3 µM and 20.2 µM | 33.2 µM and 44.9 µM | 14.2 µM and 12.1 µM | 28.2 µM and 26 µM |
| CCc1ccc([O-])c(C=NCCCN(C)CCCN=Cc2cc(C)ccc2[O-])c1.[Co+3].[N-]=[N+]=[N-] | 50 µg/mL and > 150 µg/mL | 50 µg/mL and > 150 µg/mL | 50 µg/mL and 82.6 µg/mL | 50 µg/mL and > 150 µg/mL | 50 µg/mL and > 150 µg/mL | 50 µg/mL and > 150 µg/mL | 50 µg/mL and 71.1 µg/mL | 50 µg/mL and > 150 µg/mL | 50 µg/mL and 90.8 µg/mL | 50 µg/mL and > 150 µg/mL | 50 µg/mL and 73.5 µg/mL | 50 µg/mL and > 150 µg/mL | 21.9 µg/mL and 53.3 µg/mL | 50 µg/mL and > 150 µg/mL | 50 µg/mL and 91.8 µg/mL | 50 µg/mL and > 150 µg/mL | 12.9 µg/mL and 37.3 µg/mL | 50 µg/mL and 85.9 µg/mL | 29 µg/mL | 50 µg/mL |
| CC/C(=N/N=C(N)N)c1ccc(NC(=O)Nc2ccc(/C(CC)=N/N=C(N)N)cc2)cc1 | 3490 nM | 20.1 µM | 8.24 µM | 54.5 µM | 3130 nM | > 100 µM | 6.19 µM | 32 µM | 6.08 µM | 44.8 µM | 1620 nM | 8.85 µM | 12.8 µM | > 100 µM | 12.6 µM | 46.9 µM | 16.5 µM | 64.5 µM | 2.31 µM | 9.96 µM |
| Cc1cn2c(/C=C3/C(=O)Nc4ccc(Cl)cc43)c(C)nc2s1 | 1170 nM | 24 µM | 1.22 µM | – | 1570 nM | > 100 µM | 0.564 µM | 5.28 µM | > 39.3 µM | > 54 µM | 13.7 nM | > 100 µM | 12.5 µM | > 100 µM | 17 µM | > 54.7 µM | 0.384 µM | 24.2 µM | 2.42 µM | 17.5 µM |
| COc1ccc(-c2nc3sccn3c2-c2ccnc(NCCCNS(=O)(=O)c3ccc(F)cc3)n2)cc1 | 2570 nM | 9.24 µM | 2.6 µM | 7.86 µM | 2480 nM | 8.66 µM | 2.96 µM | 48.7 µM | 2.49 µM | 8.4 µM | 1600 nM | 5.37 µM | 3.05 µM | 48.3 µM | 2.29 µM | 6.86 µM | 3.93 µM | > 100 µM | 3.92 µM | > 100 µM |
